Results on five compounds are retold here after patent US20240207286A1, “ASBT INHIBITORS IN THE TREATMENT OF RENAL DISEASES” (Albireo AB, priority 2022, published 2024).

SMILES strings stand for the structures.

One data set in a line: Bioavailability in mice. To be noted: C57BL/6, mouse, in vivo. As to the method:
(§1) ASBT inhibitor compounds 1 to 5 were used in the experiments described herein. Values were determined using the assays described in e.g. WO 2020/161217.

For data set [1], the system named is BDL mice. The data set is described as follows: Short-term effect of ASBT inhibition on urinary bile acid excretion in BDL mice (Example 2). To be noted: female BDL mice; 15, 30, 60 or 120 mg/kg p.o. twice daily for 5 days (day 7-11); all treated groups. The class given is in vivo, mice (C57BL/6n). As for the experimental part: The short-term effect of oral administration of Compound 1 to BDL mice on the urinary excretion of bile acids was evaluated.
Female mice (C57BL/6n) were used. After completion of quarantine and acclimatization period, animals were randomized based on body weight into experimental groups (n=4-7 mice in each). On day 0, animals underwent bile duct ligation. Compound 1 was administered orally by gavage twice per day. Spontaneous urine samples were collected before BDL and on days 7, 8, 9, 10, 11 and 12 after BDL by cannulation of the urinary bladder, and the concentration of bile acids in urine was determined.

Data set [2] concerns BDL mice. The data set can be described thus: Therapeutic time window in BDL mice, 28 days treatment (Example 4). It counts as in vivo, mice (C57BL/6n). To be noted: 60 mg/kg p.o. twice daily for 28 days. As to the method: The effect of the time period before start of treatment with Compound 1 on kidney injury in BDL mice was evaluated.
Male mice (C57BL/6n) were used. After completion of quarantine and acclimatization period, animals were randomized based on body weight into experimental groups (n=7 mice per group). On day 0, animals underwent bile duct ligation or sham surgery. From day 3, 21, 42 or 63, animals were treated for 28 days with either vehicle or with Compound 1 at a dose of 60 mg/kg, as shown in Table 4 below. Compound 1 was administered p.o. twice per day. The animals were weighed every day. Blood, urine, bile and tissue samples were collected at the end of the experiment.

In another data set the target is T1, hIBAT (Homo sapiens, UniProt Q12908).
T1 sequence (Q12908 1-348): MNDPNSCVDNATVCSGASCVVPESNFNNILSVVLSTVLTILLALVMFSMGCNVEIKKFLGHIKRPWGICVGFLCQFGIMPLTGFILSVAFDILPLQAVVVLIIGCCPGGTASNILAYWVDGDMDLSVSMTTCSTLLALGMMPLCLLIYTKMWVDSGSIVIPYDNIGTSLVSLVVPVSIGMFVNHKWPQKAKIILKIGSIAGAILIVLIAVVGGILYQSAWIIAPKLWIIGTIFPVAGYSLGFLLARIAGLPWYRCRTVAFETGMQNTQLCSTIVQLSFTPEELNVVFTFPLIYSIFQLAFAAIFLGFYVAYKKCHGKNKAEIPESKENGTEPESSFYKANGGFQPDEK
The data set can be described thus: hIBAT potency (IC50). It counts as cell-based. As to the method: as §1

Data set [3] has as its system BDL mice. The data set can be described thus: Comparison of ASBT inhibitors in BDL mice, 19 days treatment (Example 5). It counts as in vivo, mice (C57BL/6n). To be noted: male BDL mice; for serum bile acids / urine bile acids: p.o. once daily for 19 days, Compound 1 60 mg/kg, Compound 2 3 and 10 mg/kg; for urinary NGAL: p.o. once daily, after treatment for 18 days. As to the method: Male mice (C57BL/6n) were used. After completion of quarantine and acclimatization period, animals were randomized based on body weight into experimental groups (n=12 mice per bile duct ligation group along with 5 sham operated controls). On day 0, animals underwent bile duct ligation or sham surgery. The ASBT inhibitors were administered p.o. once daily. The animals were weighed every day. At day 21, blood samples were taken 2 and 6 hours after the final dose. At day 24, animals were sacrificed and samples (urine and blood; liver, kidney, heart and spleen tissues) were collected and analysed.

In data set [4] the test system is BDL mice. The data set can be described thus: Long-term effect on cholemic nephropathy in bile duct ligated mice, 6 weeks (Example 3). It counts as in vivo, mice (C57BL/6n). As to the method:
The long-term effect of Compound 1 on kidney injury in BDL mice was studied by histology, clinical chemistry and intravital imaging.
[…] […] On day 0, animals underwent bile duct ligation or sham surgery. Compound 1 was administered orally by gavage twice per day. Spontaneous urine samples were collected before BDL as well as on day 1 and weeks 1, 2, 3, 4, 5, and 6 after BDL by cannulation of the urinary bladder. Blood, urine, bile and tissue samples were collected at the end (week 6) of the experiment.

The next data set is described as follows: Caco-2 permeability. It counts as in vitro ADME. To be noted: human; for Papp A→B: A2B; for Papp B→A: B2A.
Excerpt: Some ASBT inhibitors may show improved or optimal permeability. The permeability may be measured in Caco2 cells, and values are given as Papp (apparent permeability) values in cm/s. In some embodiments, the permeability is between about 0.01×10^−6 cm/s and about 50×10^−6 cm/s, such as between about 0.05×10^−6 cm/s and about 40×10^−6 cm/s, or such as between about 0.1×10^−6 cm/s and about 30×10^−6 cm/s. In some embodiments, the permeability is greater than at least about 0.1×10^−6 cm/s, such as greater than about 0.2×10^−6 cm/s, such as greater than about 0.4×10^−6 cm/s, such as greater than about 0.7×10^−6 cm/s, such as greater than about 1.0×10^−6 cm/s, such as greater than about 2×10^−6 cm/s, such as greater than about 3×10^−6 cm/s, such as greater than about 5×10^−6 cm/s, such as greater than about 7×10^−6 cm/s, such as greater than about 10×10^−6 cm/s, such as greater than about 15×10^−6 cm/s.
as §1
(In general: Caco-2 monolayers are a common model of the intestinal barrier.)

Data set [5] deals with BDL mice. The data set is described as follows: Comparison of ASBT inhibitors in BDL mice, 5 days treatment (Example 6). It counts as in vivo, mice (C57BL/6n). Particulars: male BDL mice; 10 mg/kg p.o. once daily for 5 days. As to the method:
Male mice (C57BL/6n) were used. After completion of quarantine and acclimatization period, animals were randomized based on body weight into experimental groups (n=10 mice per bile duct ligation group). On day 1, animals underwent bile duct ligation. The ASBT inhibitors were administered p.o. once daily. The animals were weighed every day. At day 6, animals were moved to individual cages for cumulative overnight fecal collection (day 6 to 7). At day 8, blood samples were taken 2 and 6 hours after the final dose. Animals were then sacrificed and samples (urine and blood; liver, kidney and ileum tissues) were collected and analysed.

For data set [6] the following is noted: in vivo; cited from earlier work.
[7] abbreviates: male BDL mice, dosing started on Day 3.
[8] abbreviates: female BDL mice, 60 mg/kg p.o. twice daily for 6 weeks.

Broadly, the bioavailability is dose-corrected exposure relative to a reference, in per cent. The IC50 is the concentration that gives 50% inhibition. A high value points to weaker potency. Compound `CCCCC1(CC)CN(c2ccccc2)c2cc(SC)c(O/C=C(\F)C(=O)O)cc2S(=O)(=O)C1` (stereo not shown) [Compound 1, (Z)-3-((3-butyl-3-ethyl-7-(methylthio)-1,1-dioxido-5-phenyl-2,3,4,5-tetrahydro-1,5-benzothiazepin-8-yl)oxy)-2-fluoroacrylic acid] came in with a bioavailability in the data set “Bioavailability in mice” of 44%. In addition, the “concentrations of bile acids in urine, fold higher after treatment” value in the data set on BDL mice [1] was “at least 20 fold”. Also, in the data set on BDL mice [2] (dosing started on Day 21), the body weight loss result was “reversed body weight loss” and the renal injury entry was “almost completely reversed”. Moreover, in the data set with BDL mice [2] (dosing started on Day 42), the body weight loss entry is “reversed body weight loss” and the renal injury entry was “partially reversed”. Besides, in the data set on BDL mice [2] (dosing started on Day 63), the “effect on renal injury and body weight loss” value is recorded as “minimal effects”. Moreover, in the data set on BDL mice [2] (setting [7]), the body weight loss result is listed as “reversed body weight loss” and the renal injury result is recorded as “completely prevented”. For the same compound, the IC50 against hIBAT amounted to 21 nM. Also, in the data set on BDL mice [3], the serum bile acids result is “lower serum bile acids”, the urine bile acids entry is “increase urine bile acids” and the “urinary NGAL” value is “lowered urinary NGAL”. Further, in the data set with BDL mice [4] (setting [8]), the “body weight loss due to BDL” value is “strongly ameliorated”; the “severe fibrosis and cystic dilatation of renal tubules (histology)” value is recorded as “antagonized by Compound 1 almost to the levels of control animals without BDL”; the “urinary BA” value was “massively increased”; the “urinary KIM-1” value is “strongly reduced”. In the data set on BDL mice [4] (setting [8]), the “urinary NGAL” value is recorded as “strongly reduced” and the “vascular leakage in kidneys (intravital imaging with Evans blue)” value is “completely reversed”. Further, the “mortality in the 6 week-period” value in the data set with BDL mice [4] (female BDL mice, 60 mg/kg p.o. twice daily, about 50% died in BDL-vehicle group) was “no mortality”. Besides, in the data set on BDL mice [4] (male mice, 6 per group), the “therapeutic efficacy in similarly designed study with male mice” value is on record as “confirmed the therapeutic efficacy”. Besides, in the data set with BDL mice [4] (po, 60 mg/kg, 1008 h), the “decrease of serum BA” value is listed as “about 90%”.
For orientation: Papp A→B means how fast a substance crosses the layer from the apical side. Lower therefore signals slow passage. What is called Papp B→A is how fast a substance crosses the layer from the basolateral side. In the data set “Caco-2 permeability”, `CCCCC1(CCCC)CN(c2ccccc2)c2cc(SC)c(OCCC(=O)O)cc2S(=O)(=O)N1` [Compound 2, 3-((3,3-dibutyl-7-(methylthio)-1,1-dioxido-5-phenyl-2,3,4,5-tetrahydro-1,2,5-benzothiadiazepin-8-yl)oxy)propanoic acid] showed a Papp A→B of 9.2 ×10⁻⁶ cm/s and a Papp B→A of 0.9 ×10⁻⁶ cm/s. Also, in the data set with BDL mice [3], the serum bile acids result is “lower serum bile acids”, the urine bile acids result is reported as “increase urine bile acids” and the “urinary NGAL” value is recorded as “lowered urinary NGAL”.
For `CCCCC1(C)CN(c2ccccc2)c2cc(SC)c(CSCC(=O)O)cc2S(=O)(=O)C1` (stereo not shown) [Compound 3, 2-(((3-butyl-3-methyl-7-(methylthio)-1,1-dioxido-5-phenyl-2,3,4,5-tetrahydro-1,5-benzothiazepin-8-yl)methyl)thio)acetic acid], in “Caco-2 permeability”, the Papp A→B is 29.3 ×10⁻⁶ cm/s and the Papp B→A is 25.3 ×10⁻⁶ cm/s.
As to `CCCCC1(CC)CN(c2ccc(F)cc2)c2cc(SC)c(OCC(=O)O)cc2S(=O)(=O)C1` (stereo not shown) [Compound 5, 2-((3-butyl-3-ethyl-5-(4-fluorophenyl)-7-(methylthio)-1,1-dioxido-2,3,4,5-tetrahydro-1,5-benzothiazepin-8-yl)oxy)acetic acid], in the data set “Caco-2 permeability”, the Papp A→B turned out to be 8.7 ×10⁻⁶ cm/s and the Papp B→A stood at 12.9 ×10⁻⁶ cm/s. The compound also showed an IC50 against hIBAT of 2.4 nM. In the data set with BDL mice [5], the “urinary NGAL” value was “significantly reduced”.
Turning to `CCCCC1(CCCC)CS(=O)(=O)c2ccc(N(C)C)cc2[C@@H](c2ccc(OCc3ccc(C[N+]45CCN(CC4)CC5)cc3)cc2)[C@H]1O.[Cl-]` [maralixibat, 1-{[4-({4-[(4R,5R)-3,3-dibutyl-7-(dimethylamino)-4-hydroxy-1,1-dioxo-2,3,4,5-tetrahydro-1H-1λ^6-benzothiepin-5-yl]phenoxy}methyl)phenyl]methyl}-1,4-diazabicyclo[2.2.2]octan-1-ium chloride], the “systemic absorption following oral administration” value in data set [6] is reported as “less than 10%”.
